How the values were obtained:
[1] = molecular target: over expressed HSD17β13 in HEK293S cells (Homo sapiens (Human), UniProt Q7Z5P4); test: In Vitro 17bHSD13 Cell Assay; type: cell-based; settings: HEK293S cells over expressing HSD17β13; estradiol to estrone conversion, 18 h, LC-MS/MS; read-out: 17bHSD1713 Cell assay IC50
Method in brief: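 HEK293S cells overexpressing HSD17β13 convert estradiol to estrone; product read by LC-MS/MS (APCI, positive MRM) as AUC ratio estrone/(estrone+estradiol). Effect normalised between DMSO and maximal inhibition by a known inhibitor control; IC50 from curve fit.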

[2] = molecular target: recombinant 17bHSD13 (N2-K300) (Homo sapiens (Human), UniProt Q7Z5P4); test: In Vitro 17bHSD13 Enzyme Assay; type: biochemical; settings: 80 nM 17bHSD13, 0.5 mM NAD, 20 μM Estradiol, 2.5 h; estradiol to estrone by LC-MS/MS
recombinant 17bHSD13 (N2-K300), sequence (Q7Z5P4 2-300): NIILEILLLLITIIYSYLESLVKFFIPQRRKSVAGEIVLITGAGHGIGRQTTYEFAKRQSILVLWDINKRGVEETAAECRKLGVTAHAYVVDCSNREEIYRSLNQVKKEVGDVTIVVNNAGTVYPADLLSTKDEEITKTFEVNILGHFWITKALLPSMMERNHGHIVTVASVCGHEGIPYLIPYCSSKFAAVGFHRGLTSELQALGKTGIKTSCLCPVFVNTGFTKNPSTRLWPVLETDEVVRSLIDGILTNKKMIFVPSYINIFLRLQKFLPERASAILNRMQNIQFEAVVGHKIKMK
Method in brief: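 Human 17bHSD13 (N2-K300, 80 nM) with 0.5 mM NAD, 20 μM estradiol and varied compound in 50 mM Tris-Cl pH 7.4, 5 mM EDTA, 0.01% DDM. Estrone/(estrone+estradiol) ratio read by LC-MS/MS (APCI, positive MRM). Inhibition normalised to DMSO and a known-inhibitor control; IC50 from curve fit.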

[3] = molecular target: over expressed HSD17β9 in HEK293S cells (Homo sapiens (Human), UniProt Q92781); test: In Vitro 17bHSD9 Cell Assay; type: cell-based; settings: HEK293S cells over expressing HSD17β9; retinol to retinal conversion, 18 h, LC-MS/MS; read-out: 17bHSD9 Cell assay IC50
over expressed HSD17β9 in HEK293S cells, sequence (Q92781 whole entry): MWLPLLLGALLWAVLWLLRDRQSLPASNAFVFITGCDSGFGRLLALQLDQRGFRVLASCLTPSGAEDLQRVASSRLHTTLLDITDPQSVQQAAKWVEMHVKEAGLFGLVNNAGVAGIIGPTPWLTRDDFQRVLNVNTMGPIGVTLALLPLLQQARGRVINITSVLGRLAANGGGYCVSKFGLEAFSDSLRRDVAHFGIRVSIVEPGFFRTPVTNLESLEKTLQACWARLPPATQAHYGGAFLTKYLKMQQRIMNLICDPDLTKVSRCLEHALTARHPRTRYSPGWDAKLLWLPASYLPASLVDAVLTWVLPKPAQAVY
Method in brief: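 HEK293S cells overexpressing HSD17β9 were plated at 10K cells/well in DMEM + 10% FBS and cultured 18 h. Retinol-to-retinal conversion in media was quantified by LC-MS/MS (MRM) as retinal/(retinal + retinol). IC50 was fitted after normalisation to DMSO and full inhibition by a reference inhibitor.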

CYP2C9 = CYP2C9 (Homo sapiens (Human), UniProt P11712); test: Assay B: Cytochrome P450 Inhibition 2C9
CYP2C9, sequence (P11712 whole entry): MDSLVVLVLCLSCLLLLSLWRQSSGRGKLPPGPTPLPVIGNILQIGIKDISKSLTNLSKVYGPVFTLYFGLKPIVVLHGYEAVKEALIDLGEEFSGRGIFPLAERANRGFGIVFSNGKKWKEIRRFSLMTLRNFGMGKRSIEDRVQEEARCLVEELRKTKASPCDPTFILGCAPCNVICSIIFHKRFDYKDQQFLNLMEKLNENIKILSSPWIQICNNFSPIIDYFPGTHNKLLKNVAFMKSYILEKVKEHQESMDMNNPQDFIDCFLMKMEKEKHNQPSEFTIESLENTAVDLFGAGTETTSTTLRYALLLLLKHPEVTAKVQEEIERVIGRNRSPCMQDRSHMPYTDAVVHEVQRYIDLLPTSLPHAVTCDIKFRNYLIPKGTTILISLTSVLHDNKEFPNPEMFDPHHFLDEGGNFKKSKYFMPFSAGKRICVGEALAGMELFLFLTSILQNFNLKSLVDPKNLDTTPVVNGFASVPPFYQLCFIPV
Description: A fluorescence-based method in 96-well format was used to determine the inhibition of 2C9 (Crespi, C. L. et al., Microtiter plate assays for inhibition of human, drug-metabolizing cytochromes P450. Anal Biochem 1997, 248 (1), 188-190. DOI: 10.1006/abio.1997.2145, which is incorporated herein by reference). The recombinant human enzymes used were prepared in house, except for CYP2D6 (CYPEX LTD, Dundee, UK). Different coumarin substrates, biotransformed into fluorescent metabolites, were used as probes for each individual CYP. A fluorescence plate reader (SPECTRAMAX GEMINIXS, MOLECULAR DEVICES, Sunnyvale, California, USA) was used to measure the levels of metabolites formed. A dilution series of the test substrates was prepared at eight different concentrations. For each CYP, a mixture of the enzyme, corresponding coumarin substrate, potassium phosphate buffer pH 7.4 and water (concentrations and volumes were CYP-dependent) were added to each well in a black 96-well plate. The test substrates at different concentrations were added. After 10 min pre-incubation, the co-factor NADPH was added to initiate the reaction. After 20-50 min (CYP and substrate-dependent) the reaction was terminated by addition of trisbase/MeCN (20:80). The plates were transferred to the fluorescence plate reader where the wavelengths were set individually for the different coumarin substrates and their respective fluorescent metabolite. The responses were exported to Excel where the IC50 curves were plotted (percent inhibition versus concentration) and IC50 values calculated for each test substrate and enzyme using XL-fit.

[4] = molecular target: recombinant 17bHSD4 (M1-N311) (Homo sapiens (Human), UniProt P51659); test: In Vitro 17bHSD4 Enzyme Assay; type: biochemical; settings: 40 nM 17bHSD4, 0.125 mM NAD, 15 μM Estradiol, 1.5 h; NADH fluorescence; read-out: 17HSD17b4 Enzyme assay IC50
recombinant 17bHSD4 (M1-N311), sequence (P51659 1-311): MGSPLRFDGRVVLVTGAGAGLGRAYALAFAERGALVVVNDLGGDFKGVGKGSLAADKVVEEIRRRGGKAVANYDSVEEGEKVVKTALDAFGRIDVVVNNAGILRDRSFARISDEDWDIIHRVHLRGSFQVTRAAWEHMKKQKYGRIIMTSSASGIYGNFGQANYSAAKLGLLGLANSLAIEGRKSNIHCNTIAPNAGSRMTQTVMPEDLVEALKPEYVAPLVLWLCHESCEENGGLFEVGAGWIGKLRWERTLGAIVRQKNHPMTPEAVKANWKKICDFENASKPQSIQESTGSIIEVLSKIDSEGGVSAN
Description: In Vitro 17bHSD4 Enzyme Assay
10 concentration of compounds (0.2 μl) in DMSO was added to GREINER FLUOTRAC 200 384 well plate (781076) using ECHO dispensing (BECKMAN COULTER). 80 nl of 10 mM Estradiol (SIGMA, E8875) was added using Echo dispensing. The enzyme reaction was initiated by addition, using MULTIDROP COMBI dispensing (THERMO FISHER), of 40 μl of a mix containing recombinant 17bHSD4 (M1-N311) and NAD. Final assay conditions were 40 nM of 17bHSD4, 0.125 mM of NAD, 15 μM Estradiol and various concentrations of compound in buffer (5 mM EDTA (TEKNOVA E0306), 0.01% DDM (AFFYMETRIX D310) in 50 mM Tris-Cl, pH 7.4). After each addition plates were centrifuged for 1 min at 150×g (EPPENDORF, 5810R, A-4-81). NADH formation was measured by fluorescence intensity (FI) (Ex360/Em460) at time zero (to) and at 1.5 h (t1) in a PHERASTAR FSX (BMG LABTECH). FI for each sample was calculated as FI at t1 minus FI at t0.
[…] […] was used for curve fitting and calculation of IC50 values.
Compound effect was calculated with the formula below;
where X represents the effect in the presence of test compound, min is DMSO and max is the maximum inhibition of enzyme using a known inhibitor as control.

over expressed HSD17β13 in HEK293S cells, sequence (Q7Z5P4 20-300): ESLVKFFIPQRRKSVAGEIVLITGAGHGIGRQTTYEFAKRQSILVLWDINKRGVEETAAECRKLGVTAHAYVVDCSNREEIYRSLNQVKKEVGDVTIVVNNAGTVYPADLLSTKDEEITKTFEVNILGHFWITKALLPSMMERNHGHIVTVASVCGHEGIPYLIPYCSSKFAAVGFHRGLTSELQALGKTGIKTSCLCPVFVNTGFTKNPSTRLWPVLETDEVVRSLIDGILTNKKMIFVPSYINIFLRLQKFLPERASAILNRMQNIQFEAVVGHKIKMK

IC50 [1] | IC50 [2] | IC50 [3] | IC50 (CYP2C9) | IC50 [4] | Compound
2.61 µM | 0.093 µM | > 50 µM | 3 µM |  | CN(C(=O)c1cc(-c2ccc(F)c(O)c2)no1)c1ccnn1C1CCCCC1 [Example 5, N-(1-Cyclohexyl-1H-pyrazol-5-yl)-3-(4-fluoro-3-hydroxyphenyl)-N-methylisoxazole-5-carboxamide]
5.05 µM | 0.083 µM |  | 8.4 µM | > 50 µM | CN(C(=O)c1cc(-c2ccc(F)c(O)c2)on1)c1ccnn1C1CCCCC1 [Example 7, N-(1-Cyclohexyl-1H-pyrazol-5-yl)-5-(4-fluoro-3-hydroxyphenyl)-N-methylisoxazole-3-carboxamide]
> 50 µM | 4.33 µM |  | 21.2 µM |  | O=C(Nc1ccnn1C1CCCCC1)c1cnc(-c2ccc(F)c(O)c2)o1 [Example 12, N-(1-Cyclohexyl-1H-pyrazol-5-yl)-2-(4-fluoro-3-hydroxyphenyl)oxazole-5-carboxamide]
0.3 µM | 0.198 µM | > 50 µM |  | 19.8 µM | COc1ccccc1N1CCN(C(=O)c2noc(-c3cc(F)c(F)c(O)c3F)n2)CC1 [Example 84, (4-(2-Methoxyphenyl)piperazin-1-yl)(5-(2,4,5-trifluoro-3-hydroxyphenyl)-1,2,4-oxadiazol-3-yl)methanone]
0.17 µM | 0.047 µM | 17.3 µM | 1.3 µM | 18 µM | O=C(c1noc(-c2cc(F)c(F)c(O)c2F)n1)N1CCC(c2ccccc2)C1 (stereo not shown) [Example 96, (3-Phenylpyrrolidin-1-yl)(5-(2,4,5-trifluoro-3-hydroxyphenyl)-1,2,4-oxadiazol-3-yl)methanone]
0.53 µM | 0.026 µM | 24.9 µM | 0.8 µM | 6.5 µM | O=C(c1noc(-c2cc(F)c(F)c(O)c2F)n1)N1CC[C@@H](c2ccc(Cl)cc2)C1 [Example 103, (S)-(3-(4-Chlorophenyl)pyrrolidin-1-yl)(5-(2,4,5-trifluoro-3-hydroxyphenyl)-1,2,4-oxadiazol-3-yl)methanone]
0.37 µM | 0.143 µM | 5 µM |  | 10.5 µM | CC(C)c1noc(C2=CCN(C(=O)c3noc(-c4cc(F)c(F)c(O)c4F)n3)CC2)n1 [Example 107, (4-(3-Isopropyl-1,2,4-oxadiazol-5-yl)-3,6-dihydropyridin-1(2H)-yl)(5-(2,4,5-trifluoro-3-hydroxyphenyl)-1,2,4-oxadiazol-3-yl)methanone]
0.24 µM | 1.01 µM | > 50 µM |  | > 50 µM | C[C@@H]1CN(C(=O)c2nc(-c3cc(F)c(F)c(O)c3F)no2)C[C@H](C)O1 [Example 110, ((2R,6S)-2,6-Dimethylmorpholino)(3-(2,4,5-trifluoro-3-hydroxyphenyl)-1,2,4-oxadiazol-5-yl)methanone]
0.06 µM | 0.117 µM | > 50 µM |  | > 50 µM | C[C@@H]1CN(C(=O)c2noc(-c3cc(O)c(F)c(F)c3)n2)C[C@H](C)O1 [Example 116, (5-(3,4-Difluoro-5-hydroxyphenyl)-1,2,4-oxadiazol-3-yl)((2R,6S)-2,6-dimethylmorpholino)methanone]
